# From patent publication US12440493B2, “Combination therapy for treating cancer comprising substituted piperazines” (Eli Lilly and Company, priority 2020, dated 2025)
# Several values for one entry are separate records, joined by “and”; a condition that tells them apart may be missing. Equal values may be shown once.
# How the values were obtained:
# [1] = system: IDH1(R132H) primary human AML cells; experiment: AML clearance in peripheral blood (flow cytometry, % hCD33+hCD45+ of total white cells), human AML PDx models in NSG mice; format: in vivo; conditions: for AML clearance (% hCD33 + hCD45+ (of total white cells)): 1 mg/kg Azacitidine, (QDx5, rest2)X2, 14 days off, each value one animal, 1 mg/kg
# Protocol: (§1) Compounds and Formulation. For in vivo studies, each test article is prepared at an appropriate concentration with vehicle. […] Compound A is prepared fresh at the appropriate concentrations with vehicle every 7 days and stored at 4° C. between doses. […] Cytarabine is prepared fresh weekly by dilution with sterile saline from stock solution of Cytarabine (injection 20 mg/mL, (Pfizer injectables')). Azacitidine (Sigma, Lot #MKBR7212) is formulated in sterile water and is prepared fresh daily immediately before dosing. In vivo human AML PDx models. […] Two models are used in the studies: […] As needed, splenocytes from tumor-bearing mice are used to propagate and expand the models, as described. Each test article is prepared as described above at an appropriate concentration with vehicle to give animals the doses tested in this study at a dosing volume of 10 μL/gram body weight. Mice receiving Compound A (PO, QD) are treated at the indicated doses for the duration of the study. The combination agents are dosed as follows: […] Treated mice are assessed in comparison to vehicle treated and naïve (non-tumor bearing) control mice. Body weight is recorded twice per week. […] AML PDx model propagation. […] Spleens are processed and splenocytes isolated as described below. Two hundred μL per subject of the splenocyte prep is injected IV (intravenous, tail vein) into recipient NSG mice. […] Once engraftment is confirmed, the mice are monitored biweekly until ready to be put on study. […] Submandibular blood is collected. Spleen/Splenocyte Processing and Prep. After excision, a spleen is weighed, and […] is placed in a standard sterile 15 mL polypropylene conical tube containing PBS, and placed on ice. […] The spleen is placed in ice cold sterile PBS in a 15 mL collection tube. The spleen is removed from the collection tube and placed in a 100 micron 50 mL conical tube cell strainer (BD Falcon #352360). The spleen is processed by gentle rubbing of the spleen tissue against the surface of the cell strainer with the end of a 5 mL syringe plunger in a circular motion. The surface of the strainer is rinsed with 10 mL room temperature sterile DPBS (HyClone SH30028) 3 times during the process. […] The cell pellet is collected by centrifugation (300×g) and washed three times with 30 mL sterile DPBS. The cells are counted and resuspended in DPBS at the desired implant concentration. Bone Marrow Collection. […] Flow cytometry analysis of human white cells. Submandibular blood samples from in vivo studies are collected. Fluor-conjugated antibody stains are added according to the manufacturer's instructions (anti-human CD33-PE (clone WM53, BD Cat #555450), anti-human CD14-APC (clone MφpP9, BD Cat #340436), anti-human CD15-V450 (clone HI98, BD Cat #561584), anti-human CD117-BV421 (clone YB5.B8, BD Cat #562434), anti-human […]7 (clone ICRF44, BD Cat #557754), anti-human […]7 (clone HI30, BD Cat #557748), and anti-human CD3-FITC (clone SK7, BD Cat #340542)). The samples are incubated for 30 minutes at room temperature, protected from light. After the incubation, 1.5 mL 1×BD Lyse/Fix (37° C., (BD #558049)) is added to each sample and incubated for 12 minutes at room temperature. The tubes are centrifuged at 300×g for 7 minutes. BD Lyse/Fix solution is aspirated and the cell pellet washed with stain/wash buffer 3 times (1 wash step consisted of: pellet resuspended in 3 mL stain/wash buffer, centrifuged at 300×g, aspirated wash). Fixed cells are then resuspended in 300 to 400 μL stain/wash buffer. Samples are analyzed on a Becton Dickinson FACSVerse Flow cytometer (Cat #651155 Serial #Z6511550447) using standard flow cytometry principles and techniques. Samples are analyzed on the same day as they are stained and fixed. Population gating and data analysis of percent population are performed in the FACSuite software on the FACSVerse cytometer. Percent population values from the data analysis are plotted in Graphpad Prism or in JMP13. […]
# 2-HG production = experiment: Plasma 2-HG inhibition (LC-MS metabolite analysis in plasma of AML PDx model); format: in vivo, human
# [2] = system: IDH1(R132H) primary human AML cells; experiment: AML cell differentiation in blood (flow cytometry, % hCD33+hCD11b+ of hCD45+ cells), human AML PDx models in NSG mice; format: in vivo; conditions: for AML cell differentiation (% hCD33 + hCD11b+ (of hCD45+ cells)): 1 mg/kg Azacitidine, (QDx5, rest2)X2, 14 days off, each value one animal, 1 mg/kg
# Protocol: as §1
# [3] = system: IDH1(R132H) primary human AML cells; experiment: Bone marrow AML clearance (flow cytometry), human AML PDx models in NSG mice; format: in vivo
# Protocol: as §1
# [4] = 1 mg/kg Azacitidine, IP, (QDx5, rest 2)x2 14 days off, each line one animal
# [5] = 1 mg/kg Azacitidine, (QD × 5, rest 2)x2, 14 days off, each line one animal
structure (smiles),measurement,setting,value
"Nc1ncn([C@@H]2O[C@H](CO)[C@@H](O)[C@H]2O)c(=O)n1 [Azacitidine, reference compound]",AML clearance (% hCD33 + hCD45+ (of total white cells)),[1]; Treatment day 2,23.43% and 20.98% and 19.8% and 15.03% and 22.26% and 10.88% and 16.63%
same,AML clearance (% hCD33 + hCD45+ (of total white cells)),[1]; Treatment day 15,33.19% and 44.55% and 30.95% and 35.67% and 30.39% and 28.23% and 30.75%
same,AML clearance (% hCD33 + hCD45+ (of total white cells)),[1]; Treatment day 28,13.99% and 12.05% and 15.33% and 16.77% and 13.73% and 22.64% and 22.81%
same,AML clearance (% hCD33 + hCD45+ (of total white cells)),[1]; Treatment day 43,32.23% and 23.27% and 18.57% and 27.48% and 11.38% and 25.34% and 20.44%
same,AML clearance (% hCD33 + hCD45+ (of total white cells)),[1]; Treatment day 58,11.92% and 32.12% and 11.16% and 7.63% and 9.47% and 13.4%
same,AML clearance (% hCD33 + hCD45+ (of total white cells)),[1]; Treatment day 77,12.91% and 26.37% and 20.18% and 12.58% and 15.11% and 11.64%
same,AML clearance (% hCD33 + hCD45+ (of total white cells)),[1]; Treatment day 98,62.54% and 70.18% and 65.61% and 37.53% and 38.23%
same,AML clearance (% hCD33 + hCD45+ (of total white cells)),[1]; Treatment day −19,7.65% and 4.33% and 3.14% and 6.28% and 3.24% and 2.46% and 2.87%
same,% peripheral blood AML cells (treatment group value),"[1]; day 43, group G: azacitidine (1 mg/kg), vehicle 71%",22%
same,% Inhibition of 2-HG (plasma),2-HG production; [4],32.923% and 22.691% and 56.872% and 51.81% and 75.405% and 73.207% and 49.201%
same,Naive Subtracted 2-HG (plasma),2-HG production; [4],4.603 µM and 5.305 µM and 2.959 µM and 3.307 µM and 1.688 µM and 1.838 µM and 3.486 µM
same,Plasma 2-HG,2-HG production; [4],7.539 µM and 8.241 µM and 5.896 µM and 6.243 µM and 4.624 µM and 4.775 µM and 6.422 µM
same,% plasma 2-HG (treatment group value),"2-HG production; group G: azacitidine (1 mg/kg), vehicle 100%",48%
same,AML cell differentiation (% hCD33 + hCD11b+ (of hCD45+ cells)),[2]; Treatment day 2,10.07% and 14.27% and 13.08% and 12.37% and 5.55% and 9.38% and 9.55%
same,AML cell differentiation (% hCD33 + hCD11b+ (of hCD45+ cells)),[2]; Treatment day 15,12.12% and 16.08% and 11.64% and 18.36% and 13.75% and 11.72% and 18.15%
same,AML cell differentiation (% hCD33 + hCD11b+ (of hCD45+ cells)),[2]; Treatment day 28,21.14% and 21.62% and 19.07% and 20.9% and 16.95% and 20.64% and 21.18%
same,AML cell differentiation (% hCD33 + hCD11b+ (of hCD45+ cells)),[2]; Treatment day 43,10.64% and 9.94% and 11.58% and 6.98% and 6.67% and 12.03% and 10.48%
same,AML cell differentiation (% hCD33 + hCD11b+ (of hCD45+ cells)),[2]; Treatment day 58,14.45% and 9.99% and 10.78% and 11.33% and 11.72% and 13.55%
same,AML cell differentiation (% hCD33 + hCD11b+ (of hCD45+ cells)),[2]; Treatment day 77,10.12% and 10.78% and 8.78% and 6.76% and 10.92% and 11.76%
same,AML cell differentiation (% hCD33 + hCD11b+ (of hCD45+ cells)),[2]; Treatment day 98,10.31% and 14.59% and 17.5% and 8.29% and 16.64%
same,AML cell differentiation (% hCD33 + hCD11b+ (of hCD45+ cells)),[2]; Treatment day −19,1.53% and 0% (2×) and 2.59% and 0.27% and 2.72% and 1.16%
same,% AML cell differentiation (treatment group value),"[2]; day 43, group G: azacitidine (1 mg/kg), vehicle 15%",10%
same,Bone Marrow AML Clearance: % hCD33 + hCD45+ (% of white cells),[3]; [5],49.81% and 60.61% and 72.4% and 43.12%
same,Bone Marrow AML Clearance: % hCD45+ (% of white cells),[3]; [5],49.85% and 61% and 72.52% and 43.15%
same,% human AML cells in bone marrow (of white cells; lower = more clearance),"[3]; group G: azacitidine (1 mg/kg), vehicle 94%",55%
